# Tests used:
# [1] = Long term oral toxicity study, rats; format: in vivo; settings: high doses, up to 26 week in rats
# Histamine H1 = target: T1, Histamine H1 (Cavia porcellus, UniProt P31389); assay: Receptor binding assay; parameters: species or system Guinea Pig; settings: sarsasapogenin 10 μM
# T1 construct: host or cells: tissue or cell homogenate, not specified
# Protocol: (§1) The receptor binding was investigated using the following method: Sarsasapogenin was incubated with tissue or cell homogenate that expressed the receptor of interest and a known concentration a radiolabelled compound with affinity for the receptor of interest. After the incubation period the non-bound radiolabelled compound was removed and the amount of specific binding was quantified. The amount of specific binding in the presence and absence of sarsasapogenin were compared and the percent inhibition of the binding of the radiolabelled compound by sarsasapogenin was calculated. The source of the receptor, the incubation conditions, the radiolabelled compound used varied depending on each specific assay.
# Oestrogen = assay: Receptor binding assay; parameters: species or system Bovine; settings: sarsasapogenin 10 μM
# Protocol: as §1
# Progesterone = assay: Receptor binding assay; parameters: species or system Bovine; settings: sarsasapogenin 10 μM
# Protocol: as §1
# pmn mice = assay: Progressive motor neuropathy (pmn) mouse model; format: in vivo
# Protocol: Affected homozygous +/+ pmn (“pmn mice”) mice were obtained from a breeding colony of extra toe locus(Xt)+/+pmn double heterozygous mice maintained at Neurofit (Illkirch, France). The pmn mice were dosed by oral gavage every day, starting 10 days after birth, just after the initial symptoms of the disease manifest. Sarsasapogenin (0.03, 0.3 and 3 μg/kg/day) was administered to pmn mice as a suspension in oil (10 ml/kg). Electromyographic (EMG) recordings were performed using a standard Neuromatic 2000M electromyograph apparatus in accordance with the guidelines of the American Association of Electrodiagnostic Medicine. Standard behavioural tests (grid, rotarod and hanging tests) performed weekly from day 8 assessed the motor performances of the pmn mice.
# The effect of sarsasapogenin on motor function was assessed by recording the amplitude of gastrocnemius evoked motor response (CMAP, an indirect measurement of the number of functional motor neurones).
# Transporter, Monoamine = assay: Binding assay; parameters: species or system Rabbit; settings: smilagenin 1 μM
# Protocol: as §1
# (§2) Using the same methods as described above, the binding of smilagenin (1 μM) to the receptors listed in Table 2 below, and the effect of smilagenin on the activity of the enzymes listed in Table 2 below, were investigated.
# [2] = tested on: Protein Serine/Threonine Kinase, PKC, Non-Selective; assay: Functional assay; format: biochemical, Rat; settings: smilagenin 1 μM
# Protocol: (§3) The enzyme activity modulation was investigated using the following method: Sarsasapogenin was incubated with each enzyme plus a specific substrate for each enzyme. After the incubation period the reaction was stopped and the reduction of the specific substrate or the increase in a specific product in the absence and presence of sarsasapogenin was measured and the percent inhibition of the reaction in the presence of sarsasapogenin was calculated. The amount of enzyme used, the incubation conditions, the substrate used and the method of quantification varied depending on each specific assay.
# as §2
# GDNF = assay: Unbound GDNF in the putamen of MPTP-lesioned macaques; format: in vivo, Macaca fascicularis; settings: smilagenin 20 mg/kg/day p.o., 18 weeks; control 9.52, MPTP 15.33
# Protocol: Nineteen female cynomolgus monkeys (Macaca fascicularis, 3.0-4.5 kg, 4-6 years old) were acclimatised to the experimental setting and procedures for 3 months and baseline behaviour was assessed in all animals. Fourteen female macaques received MPTP (0.2 mg/kg/day, s.c.) until marked, stable, parkinsonian symptoms developed. Animals (n=7/group) were randomly assigned to two groups; smilagenin (20 mg/kg/day, p.o.) or vehicle control (HPMC, 0.5% w/v containing Tween 80, 0.2% v/v).
# Assessments of parkinsonian disability were made after MPTP administration and following 18 weeks of smilagenin or vehicle administration. Parkinsonian disability was evaluated by post hoc analysis of DVD-recordings by a neurologist blinded to the treatment. At the end of the study the brains were removed and the levels of unbound GDNF and BDNF in the putamen were measured using Multiplex ELISA/Aushon assays. The MPTP treated macaques used in this experiment thus provide an accepted model for Parkinson's disease and similar motor-sensory neurodegenerative conditions.
# [3] = Long term oral toxicity study, mice; format: in vivo; settings: high doses, up to 52 weeks in mice
# [4] = target: Protein Tyrosine Kinase, NTRK1 (trkA) (Homo sapiens, UniProt P04629); assay: Functional assay; format: biochemical; settings: smilagenin 1 μM
# Chain of Protein Tyrosine Kinase, NTRK1 (trkA) (P04629 33-796): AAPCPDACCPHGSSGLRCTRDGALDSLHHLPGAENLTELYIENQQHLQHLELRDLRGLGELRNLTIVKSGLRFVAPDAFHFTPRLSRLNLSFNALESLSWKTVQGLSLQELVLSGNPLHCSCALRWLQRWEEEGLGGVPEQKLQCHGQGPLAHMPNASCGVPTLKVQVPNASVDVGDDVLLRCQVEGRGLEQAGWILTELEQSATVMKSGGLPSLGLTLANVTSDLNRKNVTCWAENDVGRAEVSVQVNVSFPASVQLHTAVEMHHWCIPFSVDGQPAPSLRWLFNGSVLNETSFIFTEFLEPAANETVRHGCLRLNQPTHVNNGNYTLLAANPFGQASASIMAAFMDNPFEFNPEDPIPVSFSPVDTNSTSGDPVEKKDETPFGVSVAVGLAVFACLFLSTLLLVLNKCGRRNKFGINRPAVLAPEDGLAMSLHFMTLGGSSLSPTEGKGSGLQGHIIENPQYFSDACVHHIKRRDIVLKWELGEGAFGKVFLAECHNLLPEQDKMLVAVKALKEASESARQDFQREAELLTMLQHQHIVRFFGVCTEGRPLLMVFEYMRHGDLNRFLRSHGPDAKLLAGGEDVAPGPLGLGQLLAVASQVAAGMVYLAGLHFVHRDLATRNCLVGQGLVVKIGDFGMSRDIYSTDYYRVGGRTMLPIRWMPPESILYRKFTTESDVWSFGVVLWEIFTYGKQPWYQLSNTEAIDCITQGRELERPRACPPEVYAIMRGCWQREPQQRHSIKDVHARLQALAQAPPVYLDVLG
# Protocol: as §3, §2
# [5] = target: Protein Serine/Threonine Kinase, MAPK3 (ERK1) (Homo sapiens, UniProt P27361); assay: Functional assay; format: biochemical; settings: smilagenin 1 μM
# Chain of Protein Serine/Threonine Kinase, MAPK3 (ERK1) (P27361 whole entry): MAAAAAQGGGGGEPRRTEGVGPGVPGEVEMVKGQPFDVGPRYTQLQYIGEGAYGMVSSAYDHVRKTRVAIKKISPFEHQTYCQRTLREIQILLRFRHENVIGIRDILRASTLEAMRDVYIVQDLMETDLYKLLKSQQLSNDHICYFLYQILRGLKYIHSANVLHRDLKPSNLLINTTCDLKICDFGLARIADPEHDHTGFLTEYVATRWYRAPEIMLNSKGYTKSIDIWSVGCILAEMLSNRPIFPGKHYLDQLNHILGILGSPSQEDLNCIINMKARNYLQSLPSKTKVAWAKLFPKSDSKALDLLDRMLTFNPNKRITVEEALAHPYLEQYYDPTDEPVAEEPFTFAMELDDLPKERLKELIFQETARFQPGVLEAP
# Protocol: as §3, §2
# [6] = target: Protein Serine/Threonine Kinase, MAPK13 (p38δ) (Homo sapiens, UniProt O15264); assay: Functional assay; format: biochemical; settings: smilagenin 1 μM
# Chain of Protein Serine/Threonine Kinase, MAPK13 (p38δ) (O15264 whole entry): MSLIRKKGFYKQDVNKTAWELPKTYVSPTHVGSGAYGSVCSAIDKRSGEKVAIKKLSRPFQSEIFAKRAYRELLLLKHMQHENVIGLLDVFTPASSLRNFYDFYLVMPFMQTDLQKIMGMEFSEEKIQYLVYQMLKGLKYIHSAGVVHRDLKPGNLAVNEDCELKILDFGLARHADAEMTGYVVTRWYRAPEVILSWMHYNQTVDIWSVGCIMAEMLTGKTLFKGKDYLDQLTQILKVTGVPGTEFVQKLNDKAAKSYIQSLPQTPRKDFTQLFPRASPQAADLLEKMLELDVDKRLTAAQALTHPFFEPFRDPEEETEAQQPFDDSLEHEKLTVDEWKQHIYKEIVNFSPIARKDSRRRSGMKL
# Protocol: as §3, §2
# [7] = target: Protein Serine/Threonine Kinase, AKT1 (PRKBA) (Homo sapiens, UniProt P31749); assay: Functional assay; format: biochemical; settings: smilagenin 1 μM
# Chain of Protein Serine/Threonine Kinase, AKT1 (PRKBA) (P31749 whole entry): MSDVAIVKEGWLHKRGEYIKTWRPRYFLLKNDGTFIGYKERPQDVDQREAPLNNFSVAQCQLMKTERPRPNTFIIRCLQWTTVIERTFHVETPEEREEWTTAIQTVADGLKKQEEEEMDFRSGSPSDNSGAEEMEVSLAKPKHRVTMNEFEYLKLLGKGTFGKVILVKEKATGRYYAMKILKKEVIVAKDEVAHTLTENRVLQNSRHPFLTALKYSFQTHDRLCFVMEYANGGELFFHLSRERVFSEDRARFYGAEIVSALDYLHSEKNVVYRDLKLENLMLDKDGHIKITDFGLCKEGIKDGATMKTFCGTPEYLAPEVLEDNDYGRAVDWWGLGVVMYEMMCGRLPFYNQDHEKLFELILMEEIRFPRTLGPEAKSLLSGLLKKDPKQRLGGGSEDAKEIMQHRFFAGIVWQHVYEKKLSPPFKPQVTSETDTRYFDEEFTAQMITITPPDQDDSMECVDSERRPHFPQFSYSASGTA
# Protocol: as §3, §2
# [8] = target: UDP Glucuronosyltransferase, UGT1A1 (Homo sapiens, UniProt P22309); assay: Functional assay; format: biochemical; settings: smilagenin 1 μM
# Protocol: as §3, §2
# [9] = target: Protein Tyrosine Kinase, SRC (Homo sapiens, UniProt P12931); assay: Functional assay; format: biochemical; settings: smilagenin 1 μM
# Chain of Protein Tyrosine Kinase, SRC (P12931 whole entry): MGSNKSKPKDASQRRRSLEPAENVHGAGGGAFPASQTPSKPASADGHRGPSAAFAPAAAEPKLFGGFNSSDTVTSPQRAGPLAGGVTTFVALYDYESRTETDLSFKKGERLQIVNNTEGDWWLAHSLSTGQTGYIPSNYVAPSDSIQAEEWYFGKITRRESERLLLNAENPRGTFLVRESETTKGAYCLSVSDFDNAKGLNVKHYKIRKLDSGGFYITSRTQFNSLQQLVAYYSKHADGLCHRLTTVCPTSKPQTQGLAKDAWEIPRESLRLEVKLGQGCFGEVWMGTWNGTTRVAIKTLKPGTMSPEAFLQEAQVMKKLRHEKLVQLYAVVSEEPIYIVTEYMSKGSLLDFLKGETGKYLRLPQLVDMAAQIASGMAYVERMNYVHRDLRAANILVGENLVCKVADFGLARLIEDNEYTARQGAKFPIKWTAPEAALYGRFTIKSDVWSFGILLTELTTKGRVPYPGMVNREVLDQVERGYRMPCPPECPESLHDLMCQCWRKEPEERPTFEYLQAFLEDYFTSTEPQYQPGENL
# Protocol: as §3, §2
# Functional assay = format: biochemical; settings: smilagenin 1 μM
# Protocol: as §3, §2
# [10] = target: Protein Serine/Threonine Kinase, MAPK12 (p38γ) (Homo sapiens, UniProt P53778); assay: Functional assay; format: biochemical; settings: smilagenin 1 μM
# Chain of Protein Serine/Threonine Kinase, MAPK12 (p38γ) (P53778 whole entry): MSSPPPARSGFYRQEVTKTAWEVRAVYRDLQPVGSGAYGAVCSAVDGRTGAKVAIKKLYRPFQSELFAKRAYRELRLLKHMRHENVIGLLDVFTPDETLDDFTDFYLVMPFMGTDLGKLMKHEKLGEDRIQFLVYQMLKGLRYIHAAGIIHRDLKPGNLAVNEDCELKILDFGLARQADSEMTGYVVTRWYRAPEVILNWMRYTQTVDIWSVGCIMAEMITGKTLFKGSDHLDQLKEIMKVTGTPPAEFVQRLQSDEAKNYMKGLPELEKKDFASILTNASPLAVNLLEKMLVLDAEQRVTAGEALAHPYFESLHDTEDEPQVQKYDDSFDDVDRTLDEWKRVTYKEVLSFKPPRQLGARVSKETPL
# Protocol: as §3, §2
# [11] = target: Protein Serine/Threonine Kinase, AKT3 (PRKBG) (Homo sapiens, UniProt Q9Y243); assay: Functional assay; format: biochemical; settings: smilagenin 1 μM
# Protocol: as §3, §2
# Aldose reductase = Aldose reductase (Rattus norvegicus, UniProt P07943); assay: Functional assay; format: biochemical; settings: smilagenin 1 μM
# Protocol: as §3, §2
# [12] = target: Protein Tyrosine Kinase, NTRK2 (trkB) (Homo sapiens, UniProt Q16620); assay: Functional assay; format: biochemical; settings: smilagenin 1 μM
# Chain of Protein Tyrosine Kinase, NTRK2 (trkB) (Q16620 32-822): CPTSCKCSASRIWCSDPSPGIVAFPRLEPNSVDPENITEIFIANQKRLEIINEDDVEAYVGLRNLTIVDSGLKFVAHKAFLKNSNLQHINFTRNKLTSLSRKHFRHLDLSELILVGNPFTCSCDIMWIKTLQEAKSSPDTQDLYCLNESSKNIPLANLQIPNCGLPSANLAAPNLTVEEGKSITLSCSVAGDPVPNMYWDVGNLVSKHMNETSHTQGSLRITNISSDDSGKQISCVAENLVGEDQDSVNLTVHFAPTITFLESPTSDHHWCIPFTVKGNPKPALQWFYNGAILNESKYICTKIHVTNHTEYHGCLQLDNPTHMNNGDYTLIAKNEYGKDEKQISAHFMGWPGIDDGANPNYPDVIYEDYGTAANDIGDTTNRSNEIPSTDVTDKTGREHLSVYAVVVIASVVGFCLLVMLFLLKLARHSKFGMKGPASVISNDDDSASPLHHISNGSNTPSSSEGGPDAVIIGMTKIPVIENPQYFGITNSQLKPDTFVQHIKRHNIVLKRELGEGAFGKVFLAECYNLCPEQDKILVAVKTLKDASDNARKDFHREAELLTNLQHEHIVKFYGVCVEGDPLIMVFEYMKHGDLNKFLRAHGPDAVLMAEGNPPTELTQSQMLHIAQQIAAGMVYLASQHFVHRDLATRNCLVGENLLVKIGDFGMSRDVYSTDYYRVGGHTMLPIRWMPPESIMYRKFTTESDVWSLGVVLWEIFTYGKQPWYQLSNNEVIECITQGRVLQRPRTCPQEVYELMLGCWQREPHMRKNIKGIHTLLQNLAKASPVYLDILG
# Protocol: as §3, §2
# [13] = target: Protein Serine/Threonine Kinase, MAPK8 (JNK1) (Homo sapiens, UniProt P45983); assay: Functional assay; format: biochemical; settings: smilagenin 1 μM
# Chain of Protein Serine/Threonine Kinase, MAPK8 (JNK1) (P45983 whole entry): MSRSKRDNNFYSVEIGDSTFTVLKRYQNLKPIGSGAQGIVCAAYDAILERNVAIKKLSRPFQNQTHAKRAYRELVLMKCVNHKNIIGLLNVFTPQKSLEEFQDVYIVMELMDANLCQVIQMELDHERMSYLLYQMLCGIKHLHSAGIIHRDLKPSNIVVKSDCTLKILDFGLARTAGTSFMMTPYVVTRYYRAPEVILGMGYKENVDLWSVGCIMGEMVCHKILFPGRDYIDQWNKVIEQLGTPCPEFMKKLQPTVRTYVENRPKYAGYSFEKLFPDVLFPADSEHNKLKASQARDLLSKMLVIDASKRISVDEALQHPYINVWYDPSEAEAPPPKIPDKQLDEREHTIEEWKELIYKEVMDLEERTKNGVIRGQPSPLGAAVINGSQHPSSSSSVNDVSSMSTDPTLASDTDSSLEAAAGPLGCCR
# Protocol: as §3, §2
# [14] = target: Protein Serine/Threonine Kinase, MAPK11 (p38β) (Homo sapiens, UniProt Q15759); assay: Functional assay; format: biochemical; settings: smilagenin 1 μM
# Chain of Protein Serine/Threonine Kinase, MAPK11 (p38β) (Q15759 whole entry): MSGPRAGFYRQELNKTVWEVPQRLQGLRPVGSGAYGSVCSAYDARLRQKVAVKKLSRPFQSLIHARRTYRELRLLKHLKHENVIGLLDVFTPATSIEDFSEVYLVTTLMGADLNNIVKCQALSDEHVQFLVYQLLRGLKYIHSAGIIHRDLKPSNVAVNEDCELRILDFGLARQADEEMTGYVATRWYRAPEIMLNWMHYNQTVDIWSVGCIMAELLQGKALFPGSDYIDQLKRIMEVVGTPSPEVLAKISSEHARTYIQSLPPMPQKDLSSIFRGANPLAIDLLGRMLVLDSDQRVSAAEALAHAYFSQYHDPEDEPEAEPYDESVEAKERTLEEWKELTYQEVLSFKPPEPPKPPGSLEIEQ
# Protocol: as §3, §2
# T1 sequence (P31389 whole entry): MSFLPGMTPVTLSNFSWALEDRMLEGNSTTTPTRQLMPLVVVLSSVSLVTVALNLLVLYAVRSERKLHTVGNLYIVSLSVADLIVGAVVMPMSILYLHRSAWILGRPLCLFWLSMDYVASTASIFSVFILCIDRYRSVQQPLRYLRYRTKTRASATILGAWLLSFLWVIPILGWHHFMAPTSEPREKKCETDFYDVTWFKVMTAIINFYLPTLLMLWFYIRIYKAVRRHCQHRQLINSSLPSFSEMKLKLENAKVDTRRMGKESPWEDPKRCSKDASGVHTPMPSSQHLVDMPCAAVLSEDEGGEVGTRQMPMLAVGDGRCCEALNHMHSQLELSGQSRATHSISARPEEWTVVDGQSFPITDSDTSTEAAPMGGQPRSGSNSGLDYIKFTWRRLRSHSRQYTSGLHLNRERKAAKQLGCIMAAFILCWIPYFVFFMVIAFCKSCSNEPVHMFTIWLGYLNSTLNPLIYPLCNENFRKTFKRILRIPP
smiles,measurement,setting,value
"C[C@H]1CC[C@@]2(OC1)O[C@H]1C[C@H]3[C@@H]4CC[C@@H]5C[C@@H](O)CC[C@]5(C)[C@H]4CC[C@]3(C)[C@H]1[C@@H]2C [Sarsasapogenin, sarsasapogenin]",Long term toxicity,[1],without showing any signs of toxicity or adverse events
same,Effect (%),Histamine H1,NS (NS = No significant response. Significance was taken as ≧30% stimulation or inhibition)
same,Effect (%),Oestrogen,NS (NS = No significant response. Significance was taken as ≧30% stimulation or inhibition)
same,Effect (%),Progesterone,NS (NS = No significant response. Significance was taken as ≧30% stimulation or inhibition)
same,Progression of the motor neurone degeneration,"pmn mice; 0.03 μg/kg/day oral, lowest tested dosage",does not delay the progression of the motor neurone degeneration
same,Amplitude of CMAP (motor function),"pmn mice; 0.3 μg/kg/day oral from day 10 after birth, p<0.001",delayed the deterioration of motor function
same,Increase of survival (lifespan) of pmn mice compared to control,"pmn mice; 0.3 μg/kg/day oral, after symptoms manifest, p=0.006",up to 62%
same,Rotarod and grid test performances,"pmn mice; 0.3 μg/kg/day oral, p=0.02 vs pmn control",significantly delayed the deterioration in the rotarod and grid test performances
"C[C@@H]1CC[C@@]2(OC1)O[C@H]1C[C@H]3[C@@H]4CC[C@@H]5C[C@@H](O)CC[C@]5(C)[C@H]4CC[C@]3(C)[C@H]1[C@@H]2C [Smilagenin, smilagenin]",Effect (%),"Transporter, Monoamine",NS (NS = No significant response. Significance was taken as ≧30% stimulation or inhibition)
same,Effect (%),[2],NS (NS = No significant response. Significance was taken as ≧30% stimulation or inhibition)
same,Mean ± s.e.mean of unbound GDNF level in the putamen (pg/mg protein),GDNF,5.09 ± 1.35 pg/mg protein
same,Long term toxicity,[3],without showing any signs of toxicity or adverse events
same,Effect (%),[4],NS (NS = No significant response. Significance was taken as ≧30% stimulation or inhibition)
same,Effect (%),[5],NS (NS = No significant response. Significance was taken as ≧30% stimulation or inhibition)
same,Effect (%),[6],NS (NS = No significant response. Significance was taken as ≧30% stimulation or inhibition)
same,Effect (%),[7],NS (NS = No significant response. Significance was taken as ≧30% stimulation or inhibition)
same,Effect (%),[8],NS (NS = No significant response. Significance was taken as ≧30% stimulation or inhibition)
same,Effect (%),[9],NS (NS = No significant response. Significance was taken as ≧30% stimulation or inhibition)
same,Effect (%),Functional assay,NS (NS = No significant response. Significance was taken as ≧30% stimulation or inhibition)
same,Effect (%),[10],NS (NS = No significant response. Significance was taken as ≧30% stimulation or inhibition)
same,Effect (%),[11],NS (NS = No significant response. Significance was taken as ≧30% stimulation or inhibition)
same,Effect (%),Aldose reductase,NS (NS = No significant response. Significance was taken as ≧30% stimulation or inhibition)
same,Effect (%),[12],NS (NS = No significant response. Significance was taken as ≧30% stimulation or inhibition)
same,Effect (%),[13],NS (NS = No significant response. Significance was taken as ≧30% stimulation or inhibition)
same,Effect (%),[14],NS (NS = No significant response. Significance was taken as ≧30% stimulation or inhibition)

# From patent US20120034193A1, “TREATMENT OF NEUROTROPHIC FACTOR MEDIATED DISORDERS” (priority 2009, published 2012)
